Results reported in patent US7754758B2, “Pyrrolidine derivatives acting as CCR3-receptor antagonists” (Novartis AG, priority 2004, dated 2010).

Biological target: T1, human CCR-3 (Homo sapiens, UniProt P51677)
T1 construct: expressed in transfected cells; host or cells: rat basophil leukaemia (RBL-2H3) cells, membrane preparation
T1 sequence (P51677 1-355): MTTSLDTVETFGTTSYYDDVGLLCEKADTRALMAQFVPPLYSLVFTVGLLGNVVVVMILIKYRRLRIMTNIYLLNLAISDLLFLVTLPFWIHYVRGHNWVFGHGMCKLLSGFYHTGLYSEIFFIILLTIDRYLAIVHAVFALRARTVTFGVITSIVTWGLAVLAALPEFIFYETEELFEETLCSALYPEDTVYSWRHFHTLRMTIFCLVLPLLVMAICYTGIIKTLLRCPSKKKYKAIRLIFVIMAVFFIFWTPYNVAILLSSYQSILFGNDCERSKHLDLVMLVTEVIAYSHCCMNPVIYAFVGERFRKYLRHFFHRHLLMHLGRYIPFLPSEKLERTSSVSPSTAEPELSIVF
Assay: [125I]-human eotaxin binding to CCR-3, SPA assay
Details: inhibition of [125I]-human eotaxin binding; membranes of RBL-2H3 cells stably expressing CCR3; 4 hours at room temperature
Text: Recombinant cells expressing human CCR-3 are captured by wheatgerm agglutinin (WGA) polyvinyltoluidene (PVT) SPA beads (available from Amersham), through a specific interaction between the WGA and carbohydrate residues of glycoproteins on the surface of the cells. [^125I]-human eotaxin (available from Amersham) binds specifically to CCR-3 receptors bringing the [^125I]-human eotaxin in close proximity to the SPA beads. Emitted â-particles from the [^125I]-human eotaxin excite, by its proximity, the fluorophore in the beads and produce light.
Preparation of Assay Buffer: 5.96 g HEPES and 7.0 g sodium chloride are dissolved in distilled water and 1 M aqueous CaCl2 (1 ml) and 1M aqueous MgCl2 (5 ml) are added. The pH is adjusted to 7.6 with NaOH and the solution made to a final volume of 1 l using distilled water. 5 g bovine serum albumin and 0.1 g sodium azide are then dissolved in the solution and the resulting buffer stored at 4° C. […]
Preparation of membranes: Confluent rat basophil leukaemia (RBL-2H3) cells stably expressing CCR3 are removed from tissue culture flasks using enzyme-free cell dissociation buffer and resuspended in phosphate-buffered saline. […] The resulting scintillations are counted using a Canberra Packard TopCount, each well being counted for 1 minute. […]

Row | IC50 [nM] | Structure (SMILES)
1 | 270 | COc1cccc(NC(=O)NCCCN2CCC(Oc3ccc(F)cc3)C2)c1 (centres unmarked) [Example 2, 1-{3-[3-(4-fluorophenoxy)pyrrolidine-1-yl]propyl}-3-(3-methoxyphenyl)-urea]
2 | 446 | O=C(NCCCN1CCC(Oc2ccc(F)cc2)C1)Nc1ccc(F)c(F)c1 (centres unmarked) [Example 3]
